The EC50 is the concentration needed to bring the measured effect to its halfway point. As a reminder, the IC50 is the concentration that inhibits the measured activity by half. Low values mean greater potency, high ones weaker potency. What is called EC90 is the concentration at which the effect reaches the 90% level.

Read-outs that look alike come from different tables or passages of the source. Some results are limits rather than exact numbers.

The values below come from publication PMC9416004, “A Versatile Class of 1,4,4-Trisubstituted Piperidines Block Coronavirus Replication In Vitro” (Pharmaceuticals, 2022).

Series [1] has as its system HCoV-229E. Description: One-cycle time-of-compound addition (TOA) assay with HCoV-229E in HEL cells. Type of series: cell-based, human coronavirus 229E.
The next series in a line: in vitro. The note with it: human.
Series [2] concerns HCoV-229E. Nature of the series: Cytopathic effect (CPE) reduction assay with HCoV-229E in HEL cells. Type of series: cell-based, human coronavirus 229E. To be noted: for EC50: Human coronavirus 229E, 120 h; for Selectivity Index Microscopy: ratio of MCC to EC50-microscopy; for Selectivity Index Microscopy / Selectivity Index MTS: only values of 10 or higher shown; for Selectivity Index MTS: ratio of CC50 to EC50-MTS.

In series [3] the target is SARS-CoV-2 nsp5 main protease (M^pro) (Severe acute respiratory syndrome coronavirus 2, UniProt P0DTD1). Description: FRET-based M^pro enzymatic assay. The class given is biochemical. The note with it: for IC50 on SARS-CoV-2 M^pro enzyme activity: 80 nM nsp5, 5 μM Dabcyl-KTSAVLQSGFRKM-Edans-NH2 substrate, mean ± SEM (N = 3). On the procedure:
Serial dilutions of the compounds were incubated with purified nsp5 protein in the presence of substrate (Dabcyl-KTSAVLQ↓SGFRKM-Edans-NH2), and peptide cleavage was followed by an increase in fluorescence. The compounds’ IC50 values were determined by Hill curve fitting. Values are the mean ± SEM (N = 3).
After transforming the pGEX-6P-1 plasmid in E. coli BL21 DE3 gold, nsp5 production was stimulated by overnight induction with 250 μM IPTG at a temperature of 17 °C. After centrifugation, the bacteria were resuspended in buffer consisting of: 50 mM Tris pH 8; 300 mM NaCl; 5 mM MgSO4; 1 mM PMSF; 10 μg/mL DNAse I; 0.25 mg/mL Lysozyme; 0.1%Triton X-100; and 10% glycerol. The cells were lysed by three cycles of sonication and centrifugation. The nsp5 protein was bound to Co-NTA agarose beads and eluted in lysis buffer containing 250 mM of imidazole. Next, the protein product was concentrated on a Vivaspin 20 centrifugal concentrator (10 kDa cut-off; GE Healthcare) and imidazole was removed by dialysis. Finally, the purified nsp5 was stored at −80 °C with 50% glycerol.
M^pro enzymatic assay. The fluorescence resonance energy transfer (FRET)-based protease assay was performed in black 384-well plates. Briefly, serial dilutions of the compounds were incubated with 80 nM nsp5 protein and 5 μM peptide substrate (Dabcyl-KTSAVLQ↓SGFRKM-Edans-NH2; Genscript) in buffer consisting of: 20 mM HEPES pH 6.5; 120 mM NaCl; 0.4 mM EDTA; 4 mM dithiothreitol; and 10% glycerol. The final DMSO content was 0.5%. Cleavage of the substrate was monitored for 40 min by measuring the increasing fluorescence in a Tecan Safire 2 plate reader (wavelength settings: excitation at 335 nm and emission at 493 nm). For each condition, enzyme activity was derived from the slope for the linear part of the curve and expressed relative to the activity in the condition receiving no compound. To determine the IC50 values, GraphPad Prism software was used to plot the % of enzyme activity against compound concentration and then fit the curves according to the equation Y = 100/(1 + (X/IC50)^HillSlope).

The subject of series [4] is human embryonic lung (HEL) fibroblast cells. The note with it: mock-infected HEL cells; microscopically visible alterations in cell morphology.
The next series concerns SARS-CoV-2. Description: RT-qPCR-based SARS-CoV-2 viral load reduction assay in A549-AT cells. The class given is cell-based. In general terms: In qPCR the cycle at which signal appears reflects the starting amount.
Setting [5] is: HCoV-229E-infected HEL cells, protection against virus-induced CPE by MTS cell viability assay, five days at 35 °C, read-out: Antiviral EC50 MTS.
The mark [6] stands for this setting: HCoV-229E-infected HEL cells, protection against virus-induced CPE by microscopic scoring, five days at 35 °C, read-out: Antiviral EC50 Microscopy.

For the molecule `CO/C1=C\C(C)=C\[C@@H](C)[C@@H](O)[C@@H](C)C/C(C)=C/C=C/[C@H](OC)[C@@H]([C@@H](C)[C@@H](O)[C@H](C)[C@@]2(O)C[C@@H](O)[C@H](C)[C@@H](C(C)C)O2)OC1=O` [bafilomycin], the “inhibition of viral RNA synthesis” value in the series with HCoV-229E [1] is listed as 9%.
In the series “in vitro”, `CC(C)(C)OC(=O)NC(Cc1ccccc1)C(=O)N(Cc1ccccc1)C1(C(=O)NCc2ccccc2)CCN(Cc2ccc([N+](=O)[O-])cc2)CC1` (stereo not drawn) [Compound 63, Tert-butyl(1-(benzyl(4-benzylcarbamoyl-1-(4-nitrobenzyl)piperidin-4-yl)amino)-1-oxo-3-phenylpropan-2-yl)carbamate] gave a CC50 of over 100 µM. In addition, the EC50 in the series on HCoV-229E [2] (setting [5]) came out at 77 ± 9 µM. Further, in the series on HCoV-229E [2] (setting [6]), the EC50 turned out to be 82 ± 15 µM. In series [3], half-maximal inhibition (IC50) was put at 196 ± 39 µM and the “IC50 on SARS-CoV-2 M^pro enzyme activity” value is “only marginal activity”. The “Cytotoxicity MCC (minimal cytotoxic concentration)” value (“Cytotoxicity MCC” below) in series [4] was at least 100 µM.
`CC(C)(C)OC(=O)N[C@@H](Cc1ccccc1)C(=O)N(Cc1ccc(F)cc1)C1(C(=O)NCc2ccccc2)CCN(Cc2ccccc2)CC1` [Compound 45]: the CC50 in the series “in vitro” worked out at 4.4 ± 0.8 µM. For the same molecule, the EC50 in the series with HCoV-229E [2] (setting [5]) amounted to 1.1 ± 0.2 µM; in the series with HCoV-229E [2] (setting [6]), 0.85 ± 0.07 µM. In addition, the IC50 in series [3] came out at 15 ± 2 µM. For the same molecule, the “Cytotoxicity MCC” value in series [4] is 50 µM.
In the case of `O=C(N/C(=C\c1ccccc1)C(=O)N1CCC(O)(c2ccc(Br)cc2)CC1)c1ccccc1` [Compound K22, (Z)-N-[3-[4-(4-bromophenyl)-4-hydroxypiperidin-1-yl]-3-oxo-1-phenylprop-1-en-2-yl]benzamide, reference compound], in the series “in vitro”, the CC50 was found to be 28 ± 3 µM. For the same molecule, the EC50 is 3.6 ± 0.6 µM in the series on HCoV-229E [2] (setting [5]) and 2.6 ± 0.5 µM in the series on HCoV-229E [2] (setting [6]). Also, the “Selectivity Index Microscopy” value in the series on HCoV-229E [2] was 19. Besides, the “Cytotoxicity MCC” value in series [4] was 50 µM. Moreover, the “inhibition of viral RNA synthesis” value with HCoV-229E [1] (compound added at 8 h p.i., HEL cells lysed at 16 h p.i., 33 15 µM, GC376 25 µM, GS-441524 20 µM, K22 15 µM) is reported as 100%.
In the case of `Cc1ccc(CC(NC(=O)OC(C)(C)C)C(=O)N(Cc2ccccc2)C2(C(=O)NCc3ccccc3)CCN(Cc3ccccc3)CC2)cc1` (stereo not drawn) [Compound 52, Tert-butyl(1-(benzyl(1-benzyl-4-benzylcarbamoylpiperidin-4-yl)amino)-1-oxo-3-(p-tolyl)propan-2-yl)carbamate], the concentration giving a half-maximal response (EC50) in the series on HCoV-229E [2] (setting [5]) amounted to 4.7 ± 0.6 µM; with HCoV-229E [2] (setting [6]), 6.6 ± 1.8 µM. In addition, the “Selectivity Index MTS” value in the series with HCoV-229E [2] is listed as over 21. In addition, the “Selectivity Index Microscopy” value in the series on HCoV-229E [2] was at least 15. Moreover, in series [3], the IC50 is 14 ± 4 µM. The “Antiviral activity EC99” value in the series with SARS-CoV-2 (100-fold reduction in viral RNA copies in supernatant at day 3 p.i.) was 3.9 µM. Also, the EC90 with SARS-CoV-2 (Severe acute respiratory syndrome coronavirus 2, 72 h, 10-fold reduction in viral RNA copies in supernatant at day 3 p.i., read-out: Antiviral activity EC90) came out at 1.7 µM. The “Cytotoxicity MCC” value in series [4] is on record as at least 100 µM.
As to `CCOC(=O)[C@H]1O[C@@H]1C(=O)N[C@@H](CC(C)C)C(=O)NCCC(C)C` [Compound E64d], the “inhibition of viral RNA synthesis” value in the series with HCoV-229E [1] (compound addition delayed until 4 h p.i., HEL cells lysed at 16 h p.i., E64d 15 µM, bafilomycin 0.00625 µM) is listed as 46%.
Turning to `CC(C)(C)OC(=O)N[C@@H](Cc1ccccc1)C(=O)N(Cc1ccccc1)C1(C(=O)NCc2ccccc2)CCN(Cc2ccccc2)CC1` [Compound 46], the CC50 in the series “in vitro” turned out to be 75 µM. The EC50 in the series with HCoV-229E [2] (setting [5]) came out at 4.5 ± 0.2 µM. The EC50 in the series on HCoV-229E [2] (setting [6]) amounted to 7.4 ± 1.3 µM. For the same molecule, in the series on HCoV-229E [2], the “Selectivity Index MTS” value came to 17 and the “Selectivity Index Microscopy” value is on record as at least 14. Further, the IC50 in series [3] came out at 22 ± 2 µM. The “Cytotoxicity MCC” value in series [4] is reported as at least 100 µM.
`CC(C)C[C@H](NC(=O)OCc1ccccc1)C(=O)N[C@@H](C[C@@H]1CCNC1=O)C(O)S(=O)(=O)[O-].[Na+]` (stereo partly drawn) [GC376]: in the series on HCoV-229E [1] ([…], 33 15 µM, GC376 25 µM, GS-441524 20 µM, K22 15 µM), the “inhibition of viral RNA synthesis” value is on record as ~ 90%.
In the case of `COC(=O)C[C@H](NC(=O)OC(C)(C)C)C(=O)N(Cc1ccccc1)C1(C(=O)NCc2ccccc2)CCN(Cc2ccccc2)CC1` [Compound 1], the CC50 in “in vitro” is over 100 µM. Moreover, the “Antiviral EC50 MTS” value in the series with HCoV-229E [2] (HCoV-229E-infected HEL cells, protection against virus-induced CPE by MTS cell viability assay, five days at 35 °C) is recorded as “no activity”. Besides, the EC50 in the series with HCoV-229E [2] (setting [5]) and in the series on HCoV-229E [2] (setting [6]) was over 100 µM each time. For the same molecule, the IC50 in series [3] was 161 ± 35 µM. Also, the “IC50 on SARS-CoV-2 M^pro enzyme activity” value in series [3] is “only marginal activity”. Moreover, in series [4], the “Cytotoxicity MCC” value is over 100 µM.
